Experimental data taken from ChEMBL document CHEMBL1127385, “Synthesis and diuretic activity of alkyl- and arylguanidine analogs of N,N'-dicyclohexyl-4-morpholinecarboxamidine in rats and dogs” (J Med Chem, 1994).

What was measured:
Rattus norvegicus [1] = assay: Total electrolytic excretion of sodium in urine of rats after peroral administration of 94.9 uM/Kg of drug; assay type: ADME, organism-based; settings: in vivo, po
Rattus norvegicus [2] = assay: Total electrolytic excretion of sodium in urine of rats after peroral administration of 31.6 uM/Kg of drug; assay type: ADME, organism-based; settings: in vivo, po
Rattus norvegicus [3] = assay: Total electrolytic excretion of sodium in urine of rats after peroral administration of 316 uM/Kg of drug; assay type: ADME, organism-based; settings: in vivo, po
Rattus norvegicus [4] = assay: Total electrolytic excretion of chlorine in urine of rats after peroral administration of 31.6 uM/Kg of drug; assay type: ADME, organism-based; settings: in vivo, po
Rattus norvegicus [5] = assay: Tested for the diuretic activity by measuring the urinary volume after peroral administering 316 uM/Kg of drug in rats; assay type: ADME, organism-based, Urine; settings: in vivo, po
Rattus norvegicus [6] = assay: Ratio of Total electrolytic excretion of sodium and potassium in urine of rats after peroral administration of 31.6 uM/Kg of drug; assay type: ADME, organism-based; settings: in vivo, po
Rattus norvegicus [7] = assay: Total electrolytic excretion of chlorine in urine of rats after peroral administration of 94.9 uM/Kg of drug; assay type: ADME, organism-based; settings: in vivo, po
Rattus norvegicus [8] = assay: Total electrolytic excretion of potassium in urine of rats after peroral administration of 316 uM/Kg of drug; assay type: ADME, organism-based; settings: in vivo, po
Rattus norvegicus [9] = assay: Ratio of Total electrolytic excretion of sodium and potassium in urine of rats after peroral administration of 94.9 uM/Kg of drug; assay type: ADME, organism-based; settings: in vivo, po
Rattus norvegicus [10] = assay: Ratio of Total electrolytic excretion of sodium and potassium in urine of rats after peroral administration of 316 uM/Kg of drug; assay type: ADME, organism-based; settings: in vivo, po
Rattus norvegicus [11] = assay: Total electrolytic excretion of chlorine in urine of rats after peroral administration of 316 uM/Kg of drug; assay type: ADME, organism-based; settings: in vivo, po
Rattus norvegicus [12] = assay: Total electrolytic excretion of potassium in urine of rats after peroral administration of 31.6 uM/Kg of drug; assay type: ADME, organism-based; settings: in vivo, po
Rattus norvegicus [13] = assay: Total electrolytic excretion of potassium in urine of rats after peroral administration of 94.9 uM/Kg of drug; assay type: ADME, organism-based; settings: in vivo, po
Rattus norvegicus [14] = assay: Tested for the diuretic activity by measuring the urinary volume after peroral administering 94.9 uM/Kg of drug in rats; assay type: ADME, organism-based, Urine; settings: in vivo, po
Rattus norvegicus [15] = assay: Tested for the diuretic activity by measuring the urinary volume after peroral administering 31.6 uM/Kg of drug in rats; assay type: ADME, organism-based, Urine; settings: in vivo, po
Rattus norvegicus [16] = assay: Total electrolytic excretion of sodium in urine of rats after peroral administration of 83.8 uM/Kg of drug; assay type: ADME, organism-based; settings: in vivo, po
Rattus norvegicus [17] = assay: Ratio of Total electrolytic excretion of sodium and potassium in urine of rats after peroral administration of 279 uM/Kg of drug; assay type: ADME, organism-based; settings: in vivo, po
Rattus norvegicus [18] = assay: Total electrolytic excretion of chlorine in urine of rats after peroral administration of 83.8 uM/Kg of drug; assay type: ADME, organism-based; settings: in vivo, po
Rattus norvegicus [19] = assay: Total electrolytic excretion of potassium in urine of rats after peroral administration of 279 uM/Kg of drug; assay type: ADME, organism-based; settings: in vivo, po
Rattus norvegicus [20] = assay: Total electrolytic excretion of sodium in urine of rats after peroral administration of 279 uM/Kg of drug; assay type: ADME, organism-based; settings: in vivo, po
Rattus norvegicus [21] = assay: Tested for the diuretic activity by measuring the urinary volume after peroral administering 27.9 uM/Kg of drug in rats; assay type: ADME, organism-based, Urine; settings: in vivo, po
Rattus norvegicus [22] = assay: Tested for the diuretic activity by measuring the urinary volume after peroral administering 83.8 uM/Kg of drug in rats; assay type: ADME, organism-based, Urine; settings: in vivo, po
Rattus norvegicus [23] = assay: Total electrolytic excretion of potassium in urine of rats after peroral administration of 27.9 uM/Kg of drug; assay type: ADME, organism-based; settings: in vivo, po
Rattus norvegicus [24] = assay: Total electrolytic excretion of potassium in urine of rats after peroral administration of 83.8 uM/Kg of drug; assay type: ADME, organism-based; settings: in vivo, po
Rattus norvegicus [25] = assay: Total electrolytic excretion of sodium in urine of rats after peroral administration of 27.9 uM/Kg of drug; assay type: ADME, organism-based; settings: in vivo, po
Rattus norvegicus [26] = assay: Total electrolytic excretion of chlorine in urine of rats after peroral administration of 27.9 uM/Kg of drug; assay type: ADME, organism-based; settings: in vivo, po
Rattus norvegicus [27] = assay: Ratio of Total electrolytic excretion of sodium and potassium in urine of rats after peroral administration of 83.8 uM/Kg of drug; assay type: ADME, organism-based; settings: in vivo, po
Rattus norvegicus [28] = assay: Tested for the diuretic activity by measuring the urinary volume after peroral administering 279 uM/Kg of drug in rats; assay type: ADME, organism-based, Urine; settings: in vivo, po
Rattus norvegicus [29] = assay: Total electrolytic excretion of chlorine in urine of rats after peroral administration of 279 uM/Kg of drug; assay type: ADME, organism-based; settings: in vivo, po
Rattus norvegicus [30] = assay: Ratio of Total electrolytic excretion of sodium and potassium in urine of rats after peroral administration of 27.9 uM/Kg of drug; assay type: ADME, organism-based; settings: in vivo, po
Rattus norvegicus [31] = assay: Tested for the diuretic activity by measuring the urinary volume after peroral administering 265 uM/Kg of drug in rats; assay type: ADME, organism-based, Urine; settings: in vivo, po
Rattus norvegicus [32] = assay: Total electrolytic excretion of sodium in urine of rats after peroral administration of 79.4 uM/Kg of drug; assay type: ADME, organism-based; settings: in vivo, po
Rattus norvegicus [33] = assay: Total electrolytic excretion of chlorine in urine of rats after intravenous administration of 7.94 uM/Kg of drug; assay type: ADME, organism-based; settings: in vivo
Rattus norvegicus [34] = assay: Total electrolytic excretion of sodium in urine of rats after peroral administration of 265 uM/Kg of drug; assay type: ADME, organism-based; settings: in vivo, po
Rattus norvegicus [35] = assay: Total electrolytic excretion of chlorine in urine of rats after peroral administration of 265 uM/Kg of drug; assay type: ADME, organism-based; settings: in vivo, po
Rattus norvegicus [36] = assay: Ratio of Total electrolytic excretion of sodium and potassium in urine of rats after peroral administration of 79.4 uM/Kg of drug; assay type: ADME, organism-based; settings: in vivo, po
Rattus norvegicus [37] = assay: Tested for the diuretic activity by measuring the urinary volume after peroral administering 79.4 uM/Kg of drug in rats; assay type: ADME, organism-based, Urine; settings: in vivo, po
Rattus norvegicus [38] = assay: Ratio of Total electrolytic excretion of sodium and potassium in urine of rats after peroral administration of 265 uM/Kg of drug; assay type: ADME, organism-based; settings: in vivo, po
Rattus norvegicus [39] = assay: Total electrolytic excretion of potassium in urine of rats after peroral administration of 7.94 uM/Kg of drug; assay type: ADME, organism-based; settings: in vivo, po
Rattus norvegicus [40] = assay: Total electrolytic excretion of potassium in urine of rats after peroral administration of 79.4 uM/Kg of drug; assay type: ADME, organism-based; settings: in vivo, po
Rattus norvegicus [41] = assay: Ratio of Total electrolytic excretion of sodium and potassium in urine of rats after intravenous administration of 7.94 uM/Kg of drug; assay type: ADME, organism-based; settings: in vivo
Rattus norvegicus [42] = assay: Tested for the diuretic activity by measuring the urinary volume after peroral administering 26.5 uM/Kg of drug in rats; assay type: ADME, organism-based, Urine; settings: in vivo, po
Rattus norvegicus [43] = assay: Ratio of Total electrolytic excretion of sodium and potassium in urine of rats after peroral administration of 26.5 uM/Kg of drug; assay type: ADME, organism-based; settings: in vivo, po
Rattus norvegicus [44] = assay: Total electrolytic excretion of chlorine in urine of rats after peroral administration of 79.4 uM/Kg of drug; assay type: ADME, organism-based; settings: in vivo, po
Rattus norvegicus [45] = assay: Total electrolytic excretion of potassium in urine of rats after peroral administration of 265 uM/Kg of drug; assay type: ADME, organism-based; settings: in vivo, po
Rattus norvegicus [46] = assay: Total electrolytic excretion of sodium in urine of rats after peroral administration of 26.5 uM/Kg of drug; assay type: ADME, organism-based; settings: in vivo, po
Rattus norvegicus [47] = assay: Total electrolytic excretion of sodium in urine of rats after intravenous administration of 7.94 uM/Kg of drug; assay type: ADME, organism-based; settings: in vivo
Rattus norvegicus [48] = assay: Total electrolytic excretion of potassium in urine of rats after peroral administration of 26.5 uM/Kg of drug; assay type: ADME, organism-based; settings: in vivo, po
Rattus norvegicus [49] = assay: Total electrolytic excretion of chlorine in urine of rats after peroral administration of 26.5 uM/Kg of drug; assay type: ADME, organism-based; settings: in vivo, po

C1CCC(N/C(=N/C2CCCC2)N2CCOCC2)CC1
Excretion Na+ (Rattus norvegicus [1]): 0.84 m equiv | Excretion Na+ (Rattus norvegicus [2]): 0.62 m equiv | Excretion Na+ (Rattus norvegicus [3]): 1.32 m equiv | Excretion Cl- (Rattus norvegicus [4]): 0.65 m equiv | V (Rattus norvegicus [5]): 8.9 mL | Ratio (Rattus norvegicus [6]): 2.2 | Excretion Cl- (Rattus norvegicus [7]): 0.92 m equiv | Excretion K+ (Rattus norvegicus [8]): 0.32 m equiv | Ratio (Rattus norvegicus [9]): 3.2 | Ratio (Rattus norvegicus [10]): 4.1 | Excretion Cl- (Rattus norvegicus [11]): 1.4 m equiv | Excretion K+ (Rattus norvegicus [12]): 0.28 m equiv | Excretion K+ (Rattus norvegicus [13]): 0.26 m equiv | V (Rattus norvegicus [14]): 6.3 mL | V (Rattus norvegicus [15]): 3.8 mL

Clc1ccccc1N/C(=N/C1CCCCC1)N1CCOCC1
Excretion Na+ (Rattus norvegicus [16]): 1.01 m equiv | Ratio (Rattus norvegicus [17]): 4.7 | Excretion Cl- (Rattus norvegicus [18]): 1.06 m equiv | Excretion K+ (Rattus norvegicus [19]): 0.31 m equiv | Excretion Na+ (Rattus norvegicus [20]): 1.45 m equiv | V (Rattus norvegicus [21]): 6.2 mL | V (Rattus norvegicus [22]): 7.7 mL | Excretion K+ (Rattus norvegicus [23]): 0.24 m equiv | Excretion K+ (Rattus norvegicus [24]): 0.29 m equiv | Excretion Na+ (Rattus norvegicus [25]): 0.72 m equiv | Excretion Cl- (Rattus norvegicus [26]): 0.84 m equiv | Ratio (Rattus norvegicus [27]): 3.5 | V (Rattus norvegicus [28]): 11.2 mL | Excretion Cl- (Rattus norvegicus [29]): 1.46 m equiv | Ratio (Rattus norvegicus [30]): 3

Cc1cccc(C)c1N/C(=N/C1CCCCC1)N1CCOCC1
V (Rattus norvegicus [31]): 17.4 mL | Excretion Na+ (Rattus norvegicus [32]): 1.71 m equiv | Excretion Cl- (Rattus norvegicus [33]): 6.5 m equiv | Excretion Na+ (Rattus norvegicus [34]): 2.05 m equiv | Excretion Cl- (Rattus norvegicus [35]): 1.86 m equiv | Ratio (Rattus norvegicus [36]): 4.8 | V (Rattus norvegicus [37]): 12.3 mL | Ratio (Rattus norvegicus [38]): 6.1 | Excretion K+ (Rattus norvegicus [39]): 1.3 m equiv | Excretion K+ (Rattus norvegicus [40]): 0.35 m equiv | Ratio (Rattus norvegicus [41]): 6.5 | V (Rattus norvegicus [42]): 9.5 mL | Ratio (Rattus norvegicus [43]): 4.4 | Excretion Cl- (Rattus norvegicus [44]): 1.7 m equiv | Excretion K+ (Rattus norvegicus [45]): 0.29 m equiv | Excretion Na+ (Rattus norvegicus [46]): 1.44 m equiv | Excretion Na+ (Rattus norvegicus [47]): 7.8 m equiv | Excretion K+ (Rattus norvegicus [48]): 0.33 m equiv | Excretion Cl- (Rattus norvegicus [49]): 1.4 m equiv
